Results published in patent US20160068883A1, “MICRO-FLUIDIC MIXER AND METHOD OF DETERMINING PATHOGEN INACTIVATION VIA ANTIMICROBIAL SOLUTIONS” (The United States of America, as represented by the …, priority 2014, published 2016).
Values joined by “and” are separate entries in the source; they are usually repeats but may differ in a detail not shown here. Identical values can stand only once.

What was measured:
[1] = test system: E. coli O157:H7; experiment: E. coli O157:H7 inactivation by free chlorine in the micro-fluidic mixer (MPN enumeration); format: cell-based, Escherichia coli O157:H7 (RM4406, ATCC 700728)
[2] = test system: E. coli; experiment: Decimal reduction time (D-value) calculated from the Watson and Hom inactivation models; parameters: species or system Escherichia coli O157:H7
Text: Kinetic modeling was also applied to simplify the complicated disinfection phenomena of produce wash system. Three models that are commonly used for studying bacterial disinfection kinetics with chemical-based disinfectant, including the Chick-Watson Model, the Hom Model, and the Selleck Model.
Watson developed an empirical logarithmic equation to relate the inactivation constant (k) to disinfectant concentration (C) and reaction time (t):
The Hom model is a generalized empirical equation of the Chick-Watson model considering chlorine disinfection as a pseudo first-order reaction:
The D-value here was calculated based on the empirical models developed in this study, namely the Watson model (equation 3) and the Hom model (equation 5). […] By increasing chlorine concentration to […], the D-value reduces to […] respectively.

OCl [free chlorine, hypochlorous acid]
contact time to achieve a 5-log reduction ([1]; 1 mg/L free chlorine): more than 1.2 second | log reduction of E. coli O157:H7 ([1]; 1.0 mg/L free chlorine, 0.25 second contact, suspension 1×10^8 CFU/mL): 0.14 log | log reduction of E. coli O157:H7 ([1]; 1.0 mg/L free chlorine, 1.00 second contact, suspension 1×10^8 CFU/mL): 4.97 log | contact time to achieve a 5-log reduction ([1]; 5 mg/L free chlorine): 0.50 second | contact time to achieve a 5-log reduction ([1]; 10 mg/L free chlorine): 0.25 second and 0.2 second | log reduction of E. coli O157:H7 ([1]; 10.0 mg/L free chlorine, 0.25 second contact): 5.77 log | contact time to achieve a 5-log reduction ([1]; 10 mg/L free chlorine, listed as chlorine): 0.2 second | contact time to achieve a 5-log reduction ([1]; 20 mg/L free chlorine): 0.25 second | bacterial survival in collected effluent (total pathogen inactivation control) ([1]; chlorine 50 mg/L, pathogen solution 10^8 MPN/mL, without dechlorinating solution): no bacterial survival detected | D-value (decimal reduction time, 90% / one log reduction) ([2]; 1 mg/L free chlorine): 28.06 milliseconds | D-value (decimal reduction time, 90% / one log reduction) ([2]; chlorine 5 (so in the source)): 5.72 milliseconds | D-value (decimal reduction time, 90% / one log reduction) ([2]; chlorine 10 (so in the source)): 2.87 milliseconds | D-value (decimal reduction time, 90% / one log reduction) ([2]; chlorine 20 (so in the source)): 1.43 milliseconds
